Tests used:
[1] = system: RAW 264.7 macrophage cells; format: cell-based
Protocol: The cells were cultured for 3 days to reach about 80% confluence. The media was removed from the wells and the cells were washed once with about 250 μL of PBS. […] As controls, cells were exposed to a) 100 μL of serum-free DMEM, b) 100 µL of 10% v/v DMSO in serum-free DMEM, and c) 100 μL of 0.1 wt. % OVA-FITC in serum-free DMEM, were added to the cells. The cells were incubated for 4 h at 37° C., 5% CO2 in a humidified atmosphere. […] After 15 min, the paraformaldehyde solution was removed, the cells were washed twice with about 250 μL of PBS, and then 100 μL of PBS was added to the fixed cells. The cells were then imaged by brightfield and confocal fluorescence microscopy

[2] = system: RAW 264.7 macrophage cells; assay: MTS cytotoxicity assay; format: cell-based; settings: 4 hours incubation; particles 0.1 wt. %, DMSO 10% v/v, serum-free DMEM; mean±standard deviation
Protocol: The cells were cultured for 3 days to reach around 80% confluence. The media was removed from the wells and the cells were washed once with about 250 μL of PBS. […] As controls, 100 μL of serum-free DMEM supplemented with 1% penicillin-streptomycin, 100 μL of 10% v/v DMSO in serum-free DMEM supplemented with 1% penicillin-streptomycin, 100 μL of 0.1 wt. % OVA-FITC in serum-free DMEM supplemented with 1% penicillin-streptomycin, and 100 μL of 0.1 wt. % HD particles suspensions in serum-free DMEM supplemented with 1% penicillin-streptomycin were added to the cells. The cells were incubated for 4 h at 37° C., 5% CO2 in a humidified atmosphere. 20 μL of MTS solution (Promega) was added to the wells and mixed. The plates were shaken at a horizontal distance of 1 mm for 10 seconds and read at 490 nm using a Biotek™ 800 TS absorbance reader. Statistical analysis was performed on the data using one-way analysis of variance (ANOVA) with a Bonferroni post hoc analysis. Significance level was set at p<0.05.

## C[S+](C)[O-] [DMSO, dimethyl sulfoxide]
[1]
  cell morphology by brightfield microscopy: rounded cell morphology and signs of apoptosis
[2]
  mean viability of RAW 264.7 cells: 64±12%

— US20250367282A1, “POLYCATION CARRIER PARTICLE” (ALLARTA LIFE SCIENCE INC., priority 2022, published 2025)
